Data taken from patent publication US20250051407A1, “De novo designed sequence-specific DNA binding proteins” (University of Washington, priority 2023, published 2025).
Entries after “also recorded” stand apart in the source; their conditions may differ.

B1: DBP35: designed DNA-binding protein, SEQ ID NO: 15, DNA target B (protein)
chain: GFGRAVKEKRKELGLTQKEFAEKAGLSRRTIIRIERGYIVPPKATKEKIAKALGTSVEELEQA

Tests used:
13 unique dsDNA targets = assay: All-by-all yeast surface display screen of DBP design hits; type: binding; details: for Target sequence preference: 13 unique dsDNA targets; for Number of the 13 tested DNA target sequences preferentially bound: 1 μM dsDNA with avidity, including designed target sequence; for Binding specificity versus design models: all-by-all screen with Rosetta-predicted motifs
Experimental: And an all-by-all screen of DBP design hits to 13 unique dsDNA targets was performed (FIG. 4, table 2). […] To try to understand these observed binding preferences, each tested DNA sequence was threaded onto each design complex model at all possible base pair alignments, the alternative complex models were relaxed with Rosetta™, and the model with the most favorable Rosetta™ ΔΔG was selected.
Saccharomyces cerevisiae EBY100 strain cultures were grown in C-Trp-Ura medium supplemented with 2% (w/v) glucose. For induction of expression, yeast cells were centrifuged at 6,000 g for 1 min and resuspended in SGCAA medium supplemented with 0.2% (w/v) glucose at the cell density of 1×10^7 cells per ml and induced at 30° C. for 16-24 h. Cells were washed with PBSF (PBS with 1% (w/v) BSA) and labeled with biotinylated targets using two labeling methods: with-avidity and without-avidity labeling. For the with-avidity method, the cells were incubated with biotinylated target, together with anti-c-Myc fluorescein isothiocyanate (FITC, Miltenyi Biotech) and streptavidin-phycoerythrin (SAPE, ThermoFisher). The concentration of SAPE in the with-avidity method was used at one-quarter of the concentration of the biotinylated targets. For the without-avidity method, the cells were first incubated with biotinylated targets, washed and secondarily labeled with SAPE and FITC.
(§1) For yeast display characterization of individual designs, including competition assays, DNA sequences encoding the proteins of interest were purchased as Integrated DNA Technologies (IDT) E-Blocks™, transformed into yeast cells, and incubated in 96 well culture plates. Labeling with biotinylated dsDNA targets and SAPE/FITC was performed in a 96 well plate format. For yeast display competition assays, labeling was performed without avidity using 1 μM biotinylated dsDNA duplex oligos and an excess of 8 μM non-biotinylated competitor dsDNA duplex oligos. […] Flow cytometry analysis was performed with an Attune NxT™ flow cytometer with autosampler. Flow cytometry data analysis was performed using custom python code and the CytoFlow™ python package. For each individual sample, gating of the expression population was performed using the CytoFlow™ Gaussian Mixture Model and the ratio of SAPE channel intensity to FITC channel intensity (binding signal/expression signal) was calculated for all gated expression events of the sample.

[1] = test system: biotinylated target dsDNA with non-biotinylated competitor dsDNA; assay: Yeast display competition assay with base-substituted competitor dsDNA; type: binding; details: for DNA binding site specificity: all possible base mutations at each position of the competitor oligo
Source text: We used a yeast display competition assay to characterize the DNA binding site specificity of a subset of the designs (FIG. 1A-E, left; FIG. 5). Addition of non-biotinylated competitor dsDNA to biotinylated target sequence reduced binding signal by flow cytometry (FIG. 1A-E, middle). […] For example, in DBP6 (FIG. 1A) R31 and R36 in the design model form bidentate hydrogen bonds with the guanines of base pair positions G12 and C9, respectively, while T32 forms a hydrogen bond with C10.
as §1

dsDNA target = assay: Site saturation mutagenesis (SSM) library sorting, protein-side footprinting; type: binding; details: for Tolerance of positions to substitution: interface, core and surface positions; for Substitutions improving binding: every residue substituted with each of the 20 amino acids
Experimental: As disclosed in the examples that follow, the contributions of each amino acid to binding for additional designs, high-resolution footprints of the binding surface as generated was assessed by sorting site saturation mutagenesis libraries (SSMs) in which every residue was substituted with each of the 20 amino acids one at a time for DBPs 1, 6, and 35. Permissible substitutions for many of the polypeptides of the disclosure are provided in columns 2 and 3 Tables 4-19.
Thus, in some embodiments, substitutions relative to the reference sequence are selected from residues listed in columns 2 or 3 of one of Tables 4-19. In other embodiments, substitutions relative to the reference sequence are selected from residues listed in column 2 of one of Tables 4-19. Column 2 lists the “best” substitutions, which retain or improve DNA target binding activity relative to the reference sequence. Column 3 lists “permissible” substitutions, which retain binding to the DNA target sequence.
To assess the contributions of each amino acid to binding for additional designs, high-resolution footprints of the binding surface as generated by sorting site saturation mutagenesis libraries (SSMs) in which every residue was substituted with each of the 20 amino acids one at a time for DBPs 1, 6, and 35. […] In a small number of cases, substitutions led to notable improvements in binding affinity.
Cell sorting of labeled yeast pools was performed using a Sony SH800S cell sorter. Libraries of designs were sorted using the with-avidity method for the first few rounds of screening to exclude weak binder candidates, followed by several without-avidity sorts with different concentrations of targets. For SSM libraries, two rounds of with-avidity sorts were applied and in the third round of screening the libraries were titrated with a series of decreasing concentrations of targets to enrich mutants with beneficial mutations.
The Pear program was used to assemble the fastq files from the deep sequencing runs. Translated, assembled reads were matched against the ordered design to determine the number of counts for each design in each pool. In each sequenced pool, binder enrichment was calculated by determining the percent of reads for each binder design in the pool and dividing this number by the same value in the naive expression sort pool. […] For SSM libraries, apparent SC50 was estimated using the fitting procedure described in Longxing et al. (15)

[2] = test system: synTF-specific cis-regulatory elements (CRE) in HEK293T cells; assay: Transcriptional activation by synTFs in HEK293T cells (ENGRAM); type: cell-based; details: DBP fused to GCN4 dimerization domain and VP64; HEK293T cells expressing PEmax; dependent on spacing between motifs
Source text: Next, we investigated whether the DBPs can be used as activators in mammalian cells. A set of synthetic transcription factors (synTFs) were created by fusing the GCN4 dimerization domain and the VP64 activation domain to the C-termini of DBPs 9, 35opt, 48, 57, and 60 which recognize 3 unique motifs. The dimerization domain allows the DBPs to recognize a palindromic target sequence consisting of two binding motifs, improving the binding affinity to the DNA sequence (FIG. 2C). We created synTF specific cis-regulatory elements (CRE) with 4 repeats spaced by 6 bp to drive the expression of downstream genes, and used the ENGRAM (43) recording technology to measure the activity of the synTFs in HEK293 cells. In ENGRAM, each CRE drives the expression of a uniquely barcoded pegRNA, which upon expression is recorded into the DNA TAPE at the HEK3 locus by prime-editor (PEmax); the activity of individual synTFs can be measured as the abundance of the barcode on the DNA TAPE (FIG. 2C). We first tested 3 different spacings-1 bp, 3 bp, and 5 bp-between the palindromic binding motifs to maximize the recorder activity. 3 synTF specific recorders and 1 TCF-LEF-recorder (negative control) were mixed with ratio 2:2:2:1 and co-transfected with synTFs into the HEK293T cells expressing PEmax. Cells were harvested and analyzed 2 days post-transfection. After analyzing the barcode abundance on the DNA TAPE, we observed 3-5 fold activation for DBP9/DBP35 and DBP57/DBP60 (FIG. 2D).
HEK293T cells expressing PEmax™ were cultured in DMEM High glucose (GIBCO), supplemented with 10% Fetal Bovine Serum (Rocky Mountain Biologicals) and 1% penicillin-streptomycin (GIBCO). Cells were grown with 5% CO2 at 37° C. 1×10^5 cells were seeded on a 48-well plate a day before transfection. Enhancer plasmid and binder plasmid were mixed with a ratio of 2:1. Enhancer variants and background control were mixed with a ratio of 2:2:2:1. A total of 300 ng of plasmid were transfected using Lipofectamine™ 3000 (ThermoFisher, L3000015), following the manufacturer's protocol. Cells were harvested 2 days post-transfection. Genomic DNA was extracted based on the protocol described earlier (43). Briefly, cells were lysed using freshly prepared lysis buffer (10 mM Tris-HCl, pH 7.5; 0.05% SDS; 25 µg/ml protease (ThermoFisher)) for each well. The genomic DNA mixture was incubated at 50° C. for 1 h, followed by an 80° C. enzyme inactivation step for 30 min. The DNA TAPE was amplified from the genomic DNA directly for next generation sequencing. Recorded information was extracted via custom analysis code. Each enhancer has a unique barcode representing its activity. Transcription activation was measured as the fold change in the barcode abundance relative to the negative control barcode. All measurements were performed in triplicates.

| Molecule | Target sequence preference (13 unique dsDNA targets) | DNA binding site specificity [1] | Tolerance of positions to substitution (dsDNA target) | Number of the 13 tested DNA target sequences preferentially bound (13 unique dsDNA targets) | Binding specificity versus design models (13 unique dsDNA targets) | Substitutions improving binding (dsDNA target) | Number of base positions of specificity [1] [base positions] | Fold activation of synTFs measured as normalized barcode abundance in the DNA TAPE [2] |
| --- | --- | --- | --- | --- | --- | --- | --- | --- |
| DBP1: designed DNA-binding protein, SEQ ID NO: 1, DNA target A (TARELEVAALIAQGRSNREIAEELNISERTVERYVRRILRKLGLRNRAQIAAWVIRRS) | strong preference for 2 or 3 of the sequence targets | specificities consistent with the designed sidechain-base interactions | most positions at the interface and the core were largely conserved while positions at the surface were more tolerant of substitutions |  |  |  |  |  |
| DBP6: designed DNA-binding protein, SEQ ID NO: 4, DNA target B (DWAARAAAARRLRKERGLTQAELGELAGVSRTTVSRIELGRPDVSQASVDAVLAVL) | strong preference for only their designed target sequence | specificity for a 6 nucleotide stretch (TGCACA) with peripheral dependence on T8 and A13; also recorded: specificities consistent with the designed sidechain-base interactions; also recorded: specificity for the GCxG motif | most positions at the interface and the core were largely conserved while positions at the surface were more tolerant of substitutions | less than 3 | bound with specificity closely consistent with the design models | relatively few mutations at interface positions improved binding with the exceptions of L39, D43, and 548 |  |  |
| B1 |  | specificities consistent with the designed sidechain-base interactions | most positions at the interface and the core were largely conserved while positions at the surface were more tolerant of substitutions | less than 3 | bound with specificity closely consistent with the design models | substitutions of R33 and K18 improved binding | 3 | 3-5 fold |
